The values that follow are results of earlier work, collected in patent publication US8507011B2, “Method for suppressing or preventing fibrous adhesion formation using a multicomponent aqueous oxychlorine composition prepared on-site” (priority 2009, dated 2013).

Structures are written as SMILES.

One data set has as its system wound. The conditions noted are these: 0.01% concentration.
The test system of a further data set is adhesion. The conditions noted are these: interperitoneal infusion, rats.

As for `OCl` [hypochlorous acid], the pKa result is recorded as “about 7.5”. Besides, the “Wound irrigant activity (in words)” value in the data set with wound is recorded as “showed promise as an effective antimicrobial wound irrigant”.

For `CN(C)c1ccc2nc3ccc(=[N+](C)C)cc-3sc2c1` [methylene blue], the “Adhesion suppression versus control (in words)” value in the data set with adhesion is “none were found between methylene blue and control”.
